Measurements from patent publication US12577247B2 (BUGWORKS RESEARCH, INC., priority 2021, dated 2026).

Key:
[1] = target: T1, A2B receptor (Homo sapiens, UniProt P29275); assay: A2bR antagonism IC50, cAMP TR-FRET in HEK-293 cells, high concentration of adenosine (30 μM); conditions: A2BR IC50 (nM) (@30 μM Adenosine), HEK-293 cells expressing A2B receptor; agonist adenosine 30 μM; 2% HSA; inhibition of cAMP;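 also: compounds preincubated 10 min with cells, then adenosine stimulation 30 min at room temperature in buffer with Rolipram 100 µM and EHNA 30 µM, TR-FRET read after 1 h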
T1 sequence (P29275 1-332): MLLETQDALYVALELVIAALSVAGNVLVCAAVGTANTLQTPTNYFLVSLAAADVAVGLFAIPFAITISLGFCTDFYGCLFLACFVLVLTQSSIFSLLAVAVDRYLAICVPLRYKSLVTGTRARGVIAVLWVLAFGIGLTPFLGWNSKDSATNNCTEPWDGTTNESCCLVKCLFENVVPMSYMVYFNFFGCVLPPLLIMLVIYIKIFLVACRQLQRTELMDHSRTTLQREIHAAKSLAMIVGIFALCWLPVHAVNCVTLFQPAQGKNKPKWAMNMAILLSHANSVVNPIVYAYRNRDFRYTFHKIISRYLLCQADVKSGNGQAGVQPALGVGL

[2] = target: T1, A2B receptor; assay: A2bR antagonism IC50, cAMP TR-FRET (Lance Ultra) in HEK-293 cells, NECA as agonist; format: cell-based; set-up: host or cells: HEK-293; conditions: HEK-293 cells expressing A2B receptor; agonist NECA 30 nM (EC90); inhibition of cAMP
[3] = target: T2, A2A receptor (Homo sapiens, UniProt P29274); assay: A2aR antagonism IC50, cAMP TR-FRET (Lance Ultra) in HEK-293 cells, NECA as agonist; format: cell-based; conditions: A2AR IC50 (nM) (@5 nM NECA), HEK-293 cells expressing A2A receptor; agonist NECA 5 nM (EC90); inhibition of cAMP;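 also: compounds tested from 10 µM down to 0.08 nM in buffer with Rolipram at room temperature, TR-FRET cAMP signal read 1 h after adding Eu-cAMP tracer and ULight anti-cAMP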
T2 construct: host or cells: HEK-293
Text: Adenosine A2A receptors and Adenosine A2B receptors induce the production of cAMP when activated/stimulated by an agonist like adenosine or 5′-(N-Ethylcarboxamido) adenosine (NECA). A Time-Resolved Fluorescence Energy Transfer (TR-FRET) assay was used to show the inhibition of this cAMP production in HEK cells upon treatment with compounds of the Formula I of the present disclosure.
HEK-293 cells expressing A2A receptor (#ES-011-C) or A2B receptor (#ES 013-C) were obtained from PerkinElmer. Cells were maintained in DMEM medium supplemented with 10% FBS and 200 μg/mL of G418 at 37° C. and 5% CO2. The cells were cultured in antibiotic free medium for a period of 16-20 hours prior to the assay. All subsequent steps of the assay are performed at room temperature (22-24° C.). The cells were harvested at about 80% confluency by gentle flushing with PBS, recovered by centrifugation and resuspended in stimulation buffer at the concentration of 5.0×10^6 cells/mL.
The assays were conducted in a stimulation buffer containing 1×DMEM, 5 mM HEPES, 0.1% BSA stabilizer and 20-30 μM Rolipram. Serial dilutions of compounds were made in stimulation buffer to achieve a final concentration of high micromolar (10 μM to 0.08 nM) in the reaction volume of 10 μL. The total reaction volume was 10 μL (5 μL of cells, 2.5 μL of antagonist and 2.5 μL of agonist). The stimulation was ended, and the reaction completed by adding 5 μL of 4× Eu-cAMP tracer working solution and 5 μL of 4× ULight-anti-cAMP working solution. The TR-FRET signal was measured after 1-hour incubation using a Tecan M1000 reader.

[4] = target: T2, A2A receptor; assay: A2aR antagonism IC50, cAMP TR-FRET in HEK-293 cells, high concentration of adenosine (30 μM); format: cell-based; conditions: HEK-293 cells expressing A2A receptor, agonist adenosine 30 μM, 2% HSA, inhibition of cAMP;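 also: compounds added 10 min before adenosine, then 30 min stimulation at room temperature in buffer with 100 µM rolipram and 30 µM EHNA, signal read 1 h after detection reagents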
[5] = read-out: A2AR IC50 (nM) (@30 μM Adenosine)

T2 sequence (P29274 whole entry): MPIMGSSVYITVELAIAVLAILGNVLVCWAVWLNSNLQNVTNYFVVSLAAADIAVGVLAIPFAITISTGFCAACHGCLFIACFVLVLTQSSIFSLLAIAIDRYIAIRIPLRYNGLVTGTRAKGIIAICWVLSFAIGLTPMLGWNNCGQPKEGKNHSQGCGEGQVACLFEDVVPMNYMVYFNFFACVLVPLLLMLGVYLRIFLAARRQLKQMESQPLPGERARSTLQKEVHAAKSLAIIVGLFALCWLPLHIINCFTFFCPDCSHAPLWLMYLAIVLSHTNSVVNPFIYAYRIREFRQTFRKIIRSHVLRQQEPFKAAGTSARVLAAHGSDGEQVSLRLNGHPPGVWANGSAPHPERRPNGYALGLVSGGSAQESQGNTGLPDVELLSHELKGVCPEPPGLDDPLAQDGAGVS

IC50 [1] [nM] | IC50 [2] [nM] | IC50 [3] [nM] | IC50 [4, 5] [nM] | Structure (SMILES) | IC50 ([4]; A2AR IC50 (nM) (@30 μM Adenosine))
2130 | 7.3 | 0.5 | 452 | CCc1c(C)nn2c(N)c(C#N)c(NCCc3ccn(C(C)(C)CO)n3)nc12 [Example 32, 7-amino-3-ethyl-5-((2-(1-(1-hydroxy-2-methylpropan-2-yl)-1H-pyrazol-3-yl)ethyl)amino)-2-methylpyrazolo[1,5-a]pyrimidine-6-carbonitrile] | –
2380 | 3.6 | < 0.1 | 260 | CCc1cccc(CCNc2nc3c(C)c(C)nn3c(N)c2C#N)n1 [Example 40, 7-amino-5-((2-(6-ethylpyridin-2-yl)ethyl)amino)-2,3-dimethyl pyrazolo [1,5-a] pyrimidine-6-carbonitrile] | –
2380 | 0.87 | 0.15 | 260 | CCc1c(C)nn2c(N)c(C#N)c(NCCc3cccc(C)n3)nc12 [Example 17, 7-Amino-3-ethyl-2-methyl-5-((2-(6-methylpyridin-2-yl)ethyl)amino) pyrazolo[1,5-a]pyrimidine-6-carbonitrile] | –
2370 | 3.6 | 0.2 | 2160 | CCc1c(C)nn2c(N)c(C#N)c(NCCc3cccc(C4(CO)CC4)n3)nc12 [Example 50, 7-amino-3-ethyl-5-((2-(6-(1-(hydroxymethyl)cyclopropyl)pyridin-2-yl)ethyl)amino)-2-methylpyrazolo[1,5-a] pyrimidine-6-carbonitrile] | –
700 | 2 | 0.1 | 81 | CCc1c(C)nn2c(N)c(C#N)c(NCCc3ccn(C4CCC4CO)n3)nc12 (racemic) [Example 77, (+−)-7-amino-3-ethyl-5-((2-(1-(2-(hydroxymethyl)cyclobutyl)-1H-pyrazol-3-yl)ethyl)amino)-2-methylpyrazolo[1,5-a]pyrimidine-6-carbonitrile] | –
1420 | 0.97 | 0.38 | 206 | Cc1nn2c(N)c(C#N)c(NCCc3cccc(CO)n3)nc2c1Cl [Example 33, 7-amino-3-chloro-5-((2-(6-(hydroxymethyl)pyridin-2-yl)ethyl)amino)-2-methylpyrazolo[1,5-a]pyrimidine-6-carbonitrile] | –
12200 | 4.7 | 0.22 | 756 | CCc1c(C(F)F)nn2c(N)c(C#N)c(NCCc3ccn(C4(CO)CC4)n3)nc12 [Example 58, 7-amino-2-(difluoromethyl)-3-ethyl-5-((2-(1-(1-(hydroxymethyl)cyclopropyl)-1H-pyrazol-3-yl)ethyl)amino) pyrazolo[1,5-a]pyrimidine-6-carbonitrile] | –
4260 | 6 | 0.3 | 635 | Cc1nn2c(N)c(C#N)c(NCCc3cccc(C4(CO)CC4)n3)nc2c1C [Example 49, 7-amino-5-((2-(6-(1-(hydroxymethyl)cyclopropyl)pyridin-2-yl)ethyl)amino)-2,3-dimethylpyrazolo[1,5-a]pyrimidine-6-carbonitrile] | –
650 | 2.9 | 0.58 | 935 | CCc1c(C)nn2c(N)c(C#N)c(NCCc3cccc(CO)n3)nc12 [Example 45, 7-amino-3-ethyl-5-((2-(6-(hydroxymethyl)pyridin-2-yl)ethyl)amino)-2-methylpyrazolo[1,5-a] pyrimidine-6-carbonitrile] | –
1770 | 7 | 0.12 | 78 | Cc1nn2c(N)c(C#N)c(NCCc3ccn(C4(CO)CC4)n3)nc2c1Cl [Example 37, 7-amino-3-chloro-5-((2-(1-(1-(hydroxymethyl)cyclopropyl)-1H-pyrazol-3-yl)ethyl)amino)-2-methylpyrazolo[1,5-a]pyrimidine-6-carbonitrile] | –
3790 | 8.6 | 0.74 | 250 | Cc1nn2c(N)c(C#N)c(NCCc3ccn(C4(CO)CC4)n3)nc2c1C [Example 55, 7-amino-5-((2-(1-(1-(hydroxymethyl)cyclopropyl)-1H-pyrazol-3-yl)ethyl)amino)-2,3-dimethylpyrazolo[1,5-a]pyrimidine-6-carbonitrile] | –
2550 | 19 | 0.2 | 43 | Cc1nn2c(N)c(C#N)c(NCCc3cc(C)n(C4(CO)CC4)n3)nc2c1C [Example 86, 7-amino-5-((2-(1-(1-(hydroxymethyl)cyclopropyl)-5-methyl-1H-pyrazol-3-yl)ethyl)amino)-2,3-dimethylpyrazolo[1,5-a]pyrimidine-6-carbonitrile] | –
1290 | 2.1 | 0.17 | 348 | Cc1nn2c(N)c(C#N)c(NCCc3cccc(C4CC4CO)n3)nc2c1C (stereo not drawn) [Example 51, 7-amino-5-((2-(6-(2-(hydroxymethyl)cyclopropyl)pyridin-2-yl)ethyl)amino)-2,3-dimethylpyrazolo[1,5-a]pyrimidine-6-carbonitrile] | –
1060 | 53 | 1.2 | 112 | Cc1nn2c(N)c(C#N)c(NCCc3ccn(C4CCC4CN)n3)nc2c1Cl (stereo not drawn) [Example 95, 7-amino-5-((2-(1-(2-(aminomethyl)cyclobutyl)-1H-pyrazol-3-yl)ethyl)amino)-3-chloro-2-methylpyrazolo[1,5-a]pyrimidine-6-carbonitrile] | –
– | 51 | 2.2 | 7660 | CCc1c(C(F)F)nn2c(N)c(C#N)c(NCCc3ccn(C(C)(C)CO)n3)nc12 [Example 48, 7-amino-2-(difluoromethyl)-3-ethyl-5-((2-(1-(1-hydroxy-2-methylpropan-2-yl)-1H-pyrazol-3-yl)ethyl)amino) pyrazolo[1,5-a]pyrimidine-6-carbonitrile] | –
829 | 9 | 0.3 | 117 | CCc1c(C)nn2c(N)c(C#N)c(NCCc3ccn(C4CCCC4CO)n3)nc12 (stereo not drawn) [Example 115, 7-amino-3-ethyl-5-((2-(1-(2-(hydroxymethyl)cyclopentyl)-1H-pyrazol-3-yl)ethyl)amino)-2-methylpyrazolo[1,5-a]pyrimidine-6-carbonitrile] | –

Structure (SMILES) | IC50 [1] [nM] | IC50 [2] [nM] | IC50 [3] [nM] | IC50 [4, 5] [nM] | IC50 ([4]; A2AR IC50 (nM) (@30 μM Adenosine))
Cc1nn2c(N)c(C#N)c(NCCc3nc(C4(CO)CC4)cs3)nc2c1Cl [Example 61, 7-amino-3-chloro-5-((2-(4-(1-(hydroxymethyl)cyclopropyl)thiazol-2-yl)ethyl)amino)-2-methylpyrazolo[1,5-a] pyrimidine-6-carbonitrile] | – | 24 | < 1 | – | 574
